Results on four molecules are retold here after US20250171473A1, “Phosphorous Containing BCL Inhibitors and Senolytic Compounds and Uses Thereof” (Rubedo Life Sciences, Inc., priority 2023, published 2025).

SMILES strings stand for the structures. pIC50: −log10 of the molar value. A value given as a limit tells only on which side of the number the result lay.

What all share (assay type): cell-based
For one test, the system named is senescent A549 cells. Nature of the test: Senescence assay, viability of senescent A549 cells (CellTiter-Glo or XTT). As to conditions: Homo sapiens; chemotherapy-induced senescent A549 cells; compounds 24-72 hours; viability relative to untreated control; read-out: Absolute IC50 average A549_SEN IC50. How it is done: (§1) Cells were maintained in DMEM media (high glucose, 4 mM L-glutamine, no sodium pyruvate) supplemented with 10% fetal bovine serum in a humidified incubator at 37° C. with 5% carbon dioxide. Senescence was induced via treatment with a sublethal concentration of chemotherapy (bleomycin, gemcitabine, doxorubicin, 5-fluorouridine, mitomycin C), followed by a rest period without chemotherapy similarly to what is reported by others in the field (e.g., Aoshiba et al., 2003 Eur Respir J 22:436-443). Senescence was qualified by low EdU (5-ethynyl-2′-deoxyuridine) incorporation and high SA-β-Gal (senescence-associated beta-galactosidase) staining compared to proliferating untreated cells. Senescent cells were plated into 96-well plates at a density of 5-15,000 cells/well. The next day, compounds were added in duplicate across ten different concentrations spanning roughly four Log10 units. Cells were incubated with the compounds for 24-72 hours, at which point viability was quantified using CellTiter-Glo (Promega) or XTT (R&D Systems). The viability for treated cells was determined relative to untreated control cells. The log of the compound concentration vs. normalized mean viability was fit to a four parameters Hill function with variable slope. The bottom was constrained to be greater than zero. The X mean value for Y=50 was interpolated to determine the absolute IC50. The results in Table 1 indicate that many of the compounds are active in cells and can induce a dose dependent decrease in the viability of senescent A549 and IMR90 cells.
(In general: ATP-based viability assays read luminescence as a measure of living cells.)

Another test deals with senescent IMR90 cells. Nature of the test: Senescence assay, viability of senescent IMR90 cells (CellTiter-Glo or XTT). As to conditions: Homo sapiens, IMR-90; chemotherapy-induced senescent IMR90 cells; compounds 24-72 hours; viability relative to untreated control; read-out: Absolute IC50 average IMR90_SEN IC50. How it is done: as §1
A further test has as its system HACAT_SEN. Description: Senescence assay, viability of senescent HACAT cells (CellTiter-Glo or XTT). As to conditions: Homo sapiens, compounds 24-72 hours, viability relative to untreated control, read-out: Absolute IC50 average HACAT_SEN IC50. How it is done:
as §1, with “The results in Table 1 indicate that many of the compounds are active in cells and can induce a dose dependent decrease in the viability of senescent A549 and IMR90 cells.” left out

As a reminder, the pIC50 is the IC50 on a negative log10 scale, so that one unit is a factor of ten. In the case of `CCOP(C)(=O)c1nc(N2CCc3cccc(C(=O)Nc4nc5ccccc5s4)c3C2)ccc1-c1cnn(CC23CC4CC(CC(C4)C2)C3)c1C` (stereo not drawn) [Compound 1, ethyl(3-(1-(((3r,5r,7r)-adamantan-1-yl)methyl)-5-methyl-1H-pyrazol-4-yl)-6-(8-(benzo[d]thiazol-2-ylcarbamoyl)-3,4-dihydroisoquinolin-2 (1H)-yl)pyridin-2-yl)(methyl)phosphinate], the pIC50 was 7.00 to 8.00 in the test on senescent A549 cells, 7.00 to 8.00 in the test with senescent IMR90 cells and greater than 8.00 with HACAT_SEN.

Consider `Cc1c(-c2ccc(N3CCc4cccc(C(=O)Nc5nc6ccccc6s5)c4C3)nc2P(C)(=O)O)cnn1CC12CC3CC(CC(C3)C1)C2` [Compound 2, (3-(1-(((3r,5r,7r)-adamantan-1-yl)methyl)-5-methyl-1H-pyrazol-4-yl)-6-(8-(benzo[d]thiazol-2-ylcarbamoyl)-3,4-dihydroisoquinolin-2 (1H)-yl)pyridin-2-yl)(methyl)phosphinic acid], for which the pIC50 was 7.00 to 8.00 in the test on senescent A549 cells and 6.00 to 7.00 with senescent IMR90 cells.

On to `Cc1c(-c2ccc(N3CCc4cccc(C(=O)Nc5nc6ccccc6s5)c4C3)nc2P(C)(=O)OCc2ccc(O[C@@H]3O[C@@H](C)[C@@H](O)[C@@H](O)[C@@H]3O)cc2)cnn1CC12CC3CC(CC(C3)C1)C2` (stereo partly drawn) [Compound 3, 4-(((2S,3S,4R,5S,6S)-3,4,5-trihydroxy-6-methyltetrahydro-2H-pyran-2-yl)oxy) benzyl(3-(1-(((3r,5r,7r)-adamantan-1-yl)methyl)-5-methyl-1H-pyrazol-4-yl)-6-(8-(benzo[d]thiazol-2-ylcarbamoyl)-3,4-dihydroisoquinolin-2 (1H)-yl)pyridin-2-yl)(methyl)phosphinate], for which the pIC50 with senescent A549 cells was 7.00 to 8.00; in the test with senescent IMR90 cells it was 6.00 to 7.00.

On to `Cc1cc(N(C)c2nc(P(C)(=O)O)c(CCCOc3ccc(C#CCN(C)C)cc3F)s2)nnc1Nc1nc2ccccc2s1` [Compound 4, (2-((6-(benzo[d]thiazol-2-ylamino)-5-methylpyridazin-3-yl)(methyl)amino)-5-(3-(4-(3-(dimethylamino)prop-1-yn-1-yl)-2-fluorophenoxy)propyl)thiazol-4-yl)(methyl)phosphinic acid], for which the negative-log IC50 (pIC50) in the test with senescent A549 cells is 6.00 to 7.00; in the test with senescent IMR90 cells, 5.00 to 6.00.
